{
  "source": "ChEMBL document CHEMBL5316263",
  "about": "“Structure-Based Discovery of Selective Histone Deacetylase 8 Degraders with Potent Anticancer Activity” (J Med Chem, 2023)",
  "key": {"[1]": {"test_system": "A549", "assay": "Induction of cell cycle arrest in human A549 cells assessed as accumulation of cells at G2/M phase at 5 uM measured after 48 hrs by propidium iodide staining based flow cytometry analysis", "format": "functional"}, "[2]": {"test_system": "A549", "assay": "Antiproliferative activity against human A549 cells assessed as inhibition of cell growth measured after 72 hrs by CCK-8 method", "format": "functional, cell-based"}, "[3]": {"test_system": "A549", "assay": "Antiproliferative activity against human A549 cells assessed as inhibition of cell growth measured after 72 hrs under irradiation by CCK-8 method", "format": "functional, cell-based", "details": "A549, light or radiation study"}, "[4]": {"test_system": "A549", "assay": "Synergistic antiproliferative activity against human A549 cells assessed as combination index measured after 72 hrs under irradiation by CCK-8 method", "format": "functional"}, "[5]": {"test_system": "A549", "assay": "Inhibition of colony formation in SiRNA mediated HDAC8 knockdown human A549 cells assessed as decrease in cell proliferation at 2.5 to 10 uM measured after 7 to 10 days with media replenishment along with compound for every 3 days by crystal violet staining based analysis", "format": "functional", "details": "dose 2.5-10 µM, time 7-10 day"}, "[6]": {"test_system": "A549", "assay": "Effect on TIPARP gene in human A549 cells at 10 uM measured after 20 hrs by RNA sequencing analysis", "format": "functional, cell-based"}, "[7]": {"test_system": "A549", "assay": "Effect on ARPIN gene in human A549 cells at 10 uM measured after 20 hrs by RNA sequencing analysis", "format": "functional, cell-based"}, "[8]": {"test_system": "A549", "assay": "Effect on FSTL4 gene in human A549 cells at 10 uM measured after 20 hrs by RNA sequencing analysis", "format": "functional, cell-based"}, "[9]": {"test_system": "A549", "assay": "Effect on HDAC8 mRNA level in human A549 cells at 10 uM measured after 20 hrs by RNA sequencing analysis", "format": "functional, cell-based"}, "[10]": {"biological_target": "T1, Histone deacetylase 8 (Homo sapiens) (UniProt Q9BY41)", "T1 sequence (whole entry)": "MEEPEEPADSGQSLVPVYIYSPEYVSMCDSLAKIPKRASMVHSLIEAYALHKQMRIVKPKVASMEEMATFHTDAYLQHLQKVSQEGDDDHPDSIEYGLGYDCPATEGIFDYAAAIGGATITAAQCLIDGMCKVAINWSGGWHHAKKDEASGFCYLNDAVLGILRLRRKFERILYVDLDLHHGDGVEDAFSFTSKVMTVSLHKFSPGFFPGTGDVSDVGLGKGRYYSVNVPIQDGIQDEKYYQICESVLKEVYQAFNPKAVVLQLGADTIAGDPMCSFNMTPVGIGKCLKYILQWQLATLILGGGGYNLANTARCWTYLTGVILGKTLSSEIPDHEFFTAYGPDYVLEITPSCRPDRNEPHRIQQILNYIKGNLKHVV", "assay": "Induction of degradation in HDAC8 in human A549 cells incubated for 20 hrs by proteomic analysis", "format": "cell-based"}, "[11]": {"test_system": "A549", "assay": "Downregulation of COMMD1 in human A549 cells measured after 20 hrs by proteomic analysis", "format": "functional, cell-based"}, "[12]": {"test_system": "A549", "assay": "Induction of apoptosis in human A549 cells incubated for 72 hrs by annexin V-FITC staining based flow cytometry", "format": "functional, cell-based", "details": "dose 1.25-20 µM"}, "[13]": {"test_system": "A549", "assay": "Induction of apoptosis in human A549 cells assessed as viable cells at 20 uM incubated for 72 hrs by annexin V-FITC staining based flow cytometry (reference value: 99.9%)", "format": "functional", "details": "read-out: Activity"}, "[14]": {"test_system": "A549", "assay": "Induction of apoptosis in human A549 cells assessed as necrotic cells at 1.25 uM incubated for 72 hrs by annexin V-FITC staining based flow cytometry relative to control", "format": "functional"}, "[15]": {"test_system": "A549", "assay": "Induction of apoptosis in human A549 cells assessed as necrotic cells at 2.5 uM incubated for 72 hrs by annexin V-FITC staining based flow cytometry relative to control", "format": "functional"}, "[16]": {"test_system": "A549", "assay": "Induction of apoptosis in human A549 cells assessed as necrotic cells at 5 uM by annexin V-FITC staining based flow cytometry (reference value: 0%)", "format": "functional"}, "[17]": {"test_system": "A549", "assay": "Induction of apoptosis in human A549 cells assessed as necrotic cells at 5 uM incubated with compound followed by irradiation by annexin V-FITC staining based flow cytometry (reference value: 2.02%)", "format": "functional"}, "[18]": {"test_system": "A549", "assay": "Induction of cell cycle arrest in human A549 cells assessed as accumulation of cells at G2/M phase at 20 uM measured after 72 hrs by propidium iodide staining based flow cytometry analysis", "format": "functional"}, "[19]": {"biological_target": "T2, Protein cereblon/Histone deacetylase 8 (Homo sapiens) (UniProt Q9BY41+Q96SW2)", "T2 sequence (Q96SW2 whole entry, looked up, one chain of several)": "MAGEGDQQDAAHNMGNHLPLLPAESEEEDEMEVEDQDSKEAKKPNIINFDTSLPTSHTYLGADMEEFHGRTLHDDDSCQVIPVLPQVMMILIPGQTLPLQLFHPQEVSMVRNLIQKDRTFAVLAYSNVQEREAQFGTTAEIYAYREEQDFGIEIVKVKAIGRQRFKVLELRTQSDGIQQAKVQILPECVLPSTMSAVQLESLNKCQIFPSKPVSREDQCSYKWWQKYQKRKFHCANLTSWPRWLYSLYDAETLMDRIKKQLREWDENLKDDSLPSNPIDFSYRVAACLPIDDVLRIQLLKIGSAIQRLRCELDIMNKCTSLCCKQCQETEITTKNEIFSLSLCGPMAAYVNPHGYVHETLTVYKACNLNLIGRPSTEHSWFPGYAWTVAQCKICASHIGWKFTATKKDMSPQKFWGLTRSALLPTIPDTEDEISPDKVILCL", "assay": "Protac activity at CRBN/HDAC8 in human A549 cells assessed as reduction in HDAC8 protein level at 10 uM by Western blot analysis relative to control", "format": "cell-based", "set-up": "scale not given: the % may be the effect or the level left"}, "[20]": {"biological_target": "Protein cereblon/Histone deacetylase 1 (Homo sapiens) (UniProt Q13547+Q96SW2)", "sequence (Q13547 whole entry, looked up)": "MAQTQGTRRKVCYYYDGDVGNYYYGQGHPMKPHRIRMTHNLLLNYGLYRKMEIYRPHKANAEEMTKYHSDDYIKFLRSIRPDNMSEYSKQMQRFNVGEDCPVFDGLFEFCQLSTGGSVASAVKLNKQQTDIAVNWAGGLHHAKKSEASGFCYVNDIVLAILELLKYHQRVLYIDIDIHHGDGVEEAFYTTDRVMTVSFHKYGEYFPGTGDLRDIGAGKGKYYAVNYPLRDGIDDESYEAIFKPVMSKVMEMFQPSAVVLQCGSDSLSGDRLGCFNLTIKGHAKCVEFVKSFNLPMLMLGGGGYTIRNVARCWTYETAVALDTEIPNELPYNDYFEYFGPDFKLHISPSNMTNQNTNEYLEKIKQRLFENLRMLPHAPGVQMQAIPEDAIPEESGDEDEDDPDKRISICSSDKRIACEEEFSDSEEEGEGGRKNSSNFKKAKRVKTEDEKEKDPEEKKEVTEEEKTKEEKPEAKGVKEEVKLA", "sequence (Q96SW2 whole entry, looked up)": "as the sequence (Q96SW2 whole entry, looked up, one chain of several) above", "assay": "Protac activity at CRBN/HDAC1 in human A549 cells assessed as reduction in HDAC1 protein level at 0.1 to 10 uM by Western blot analysis", "format": "cell-based", "details": "dose 0.1-10 µM"}, "[21]": {"biological_target": "Protein cereblon/Histone deacetylase 3 (Homo sapiens) (UniProt O15379+Q96SW2)", "sequence (O15379 whole entry, looked up)": "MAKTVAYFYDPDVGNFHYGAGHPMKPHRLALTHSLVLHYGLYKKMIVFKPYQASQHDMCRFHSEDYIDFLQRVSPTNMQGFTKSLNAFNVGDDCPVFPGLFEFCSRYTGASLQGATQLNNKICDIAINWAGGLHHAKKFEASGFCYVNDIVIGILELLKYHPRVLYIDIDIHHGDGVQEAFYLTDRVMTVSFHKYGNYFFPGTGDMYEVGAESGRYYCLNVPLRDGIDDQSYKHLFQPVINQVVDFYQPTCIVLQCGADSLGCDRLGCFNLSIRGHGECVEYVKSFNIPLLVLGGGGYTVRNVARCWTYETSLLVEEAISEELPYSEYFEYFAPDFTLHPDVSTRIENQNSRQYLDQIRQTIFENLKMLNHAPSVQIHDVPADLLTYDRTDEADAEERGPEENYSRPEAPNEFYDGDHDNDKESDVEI", "sequence (Q96SW2 whole entry, looked up)": "as the sequence (Q96SW2 whole entry, looked up, one chain of several) above", "assay": "Protac activity at CRBN/HDAC3 in human A549 cells assessed as reduction in HDAC3 protein level at 0.1 to 10 uM by Western blot analysis", "format": "cell-based", "details": "dose 0.1-10 µM"}, "[22]": {"biological_target": "T2, Protein cereblon/Histone deacetylase 8 (Homo sapiens)", "assay": "Protac activity at CRBN/HDAC8 in human HCT-116 cells assessed as reduction in HDAC8 protein level at 0.1 to 10 uM by Western blot analysis", "format": "cell-based", "details": "dose 0.1-10 µM"}, "[23]": {"biological_target": "T2, Protein cereblon/Histone deacetylase 8 (Homo sapiens)", "assay": "Protac activity at CRBN/HDAC8 in human HeLa cells assessed as reduction in HDAC8 protein level at 0.1 to 10 uM by Western blot analysis", "format": "cell-based", "details": "dose 0.1-10 µM"}, "[24]": {"biological_target": "Protein cereblon/Histone deacetylase 9 (Homo sapiens) (UniProt Q9UKV0+Q96SW2)", "sequence (Q96SW2 whole entry, looked up)": "as the sequence (Q96SW2 whole entry, looked up, one chain of several) above", "sequence (Q9UKV0 whole entry, looked up)": "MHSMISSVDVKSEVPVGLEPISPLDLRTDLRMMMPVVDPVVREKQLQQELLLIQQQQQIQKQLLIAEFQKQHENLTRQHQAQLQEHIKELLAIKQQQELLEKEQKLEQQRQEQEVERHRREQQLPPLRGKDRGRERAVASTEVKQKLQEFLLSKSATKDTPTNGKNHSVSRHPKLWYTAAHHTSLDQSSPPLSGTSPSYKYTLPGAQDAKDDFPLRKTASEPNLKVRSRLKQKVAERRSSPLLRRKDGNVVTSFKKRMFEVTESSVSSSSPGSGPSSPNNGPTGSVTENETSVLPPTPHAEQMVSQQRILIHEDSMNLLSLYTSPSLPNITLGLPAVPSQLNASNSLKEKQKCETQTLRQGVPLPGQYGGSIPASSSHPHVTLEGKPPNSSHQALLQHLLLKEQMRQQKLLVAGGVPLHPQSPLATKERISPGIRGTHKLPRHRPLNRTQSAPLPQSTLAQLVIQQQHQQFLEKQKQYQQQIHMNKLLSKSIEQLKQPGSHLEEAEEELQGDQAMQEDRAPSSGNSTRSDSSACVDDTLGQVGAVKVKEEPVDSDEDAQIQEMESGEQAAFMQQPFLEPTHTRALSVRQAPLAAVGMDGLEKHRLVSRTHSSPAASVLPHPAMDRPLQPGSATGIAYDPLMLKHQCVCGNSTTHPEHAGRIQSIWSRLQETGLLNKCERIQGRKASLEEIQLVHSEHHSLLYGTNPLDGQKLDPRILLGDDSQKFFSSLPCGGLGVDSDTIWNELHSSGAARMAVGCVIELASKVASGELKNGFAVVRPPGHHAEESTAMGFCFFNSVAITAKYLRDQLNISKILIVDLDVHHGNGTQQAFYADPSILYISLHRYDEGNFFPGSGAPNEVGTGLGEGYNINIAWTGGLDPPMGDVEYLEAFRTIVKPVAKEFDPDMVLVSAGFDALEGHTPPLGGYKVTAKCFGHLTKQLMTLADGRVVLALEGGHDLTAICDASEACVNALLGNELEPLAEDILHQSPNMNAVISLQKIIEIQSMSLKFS", "assay": "Protac activity at CRBN/HDAC9 in human A549 cells assessed as degradation of HDAC9 at 0.1 to 10 uM by Western blot analysis", "format": "cell-based", "details": "dose 0.1-10 µM"}, "[25]": {"test_system": "HCT-116", "assay": "Inhibition of HDAC8 foci formation in human HCT-116 cells measured after 20 hrs by DAPI staining based immunofluorescence assay", "format": "functional, cell-based", "details": "dose 0.5-8 µM"}, "[26]": {"test_system": "A549", "assay": "Inhibition of DNA damage repair in human A549 cells assessed as reduction in Ku80 protein level at 5 uM incubated for 24 hrs by immunofluorescence staining based analysis", "format": "functional, cell-based"}, "[27]": {"test_system": "A549", "assay": "Antitumor activity against human A549 cells xenografted in NOD/SCID mouse at 5 mg/kg, ip administered every 5 days measured at day 30", "format": "functional, organism-based", "details": "time 30.0 day"}, "[28]": {"test_system": "A549", "assay": "Antitumor activity against human A549 cells xenografted in NOD/SCID mouse at 5 mg/kg, ip administered every 5 days measured at day 30 followed by irradiation", "format": "functional, organism-based", "details": "time 30.0 day"}, "[29]": {"test_system": "A549", "assay": "Antitumor activity against human A549 cells xenografted in NOD/SCID mouse assessed as decrease in HDAC8 expression at 5 mg/kg, ip administered every 5 days measured at day 30 under irradiation condition by […] analysis", "format": "functional, organism-based", "details": "time 30.0 day"}, "[30]": {"test_system": "A549", "assay": "Antitumor activity against human A549 cells xenografted in NOD/SCID mouse assessed as increase in gamma-H2AX expression at 5 mg/kg, ip administered every 5 days measured at day 30 under irradiation condition by […] analysis", "format": "functional, organism-based", "details": "time 30.0 day"}},
  "note": "Active and inactive are the calls of the source. No cut-off for these calls is given here.",
  "data": [
    {"smiles": "O=C1CCC(N2C(=O)c3cccc(NCc4cn(CCOCCOc5ccc(Cn6ccc7ccc(C(=O)NO)cc76)cc5)nn4)c3C2=O)C(=O)N1", "note": "(stereo unspecified)", "values": [
      {"measurement": "Activity", "setting": "[1]", "value": "Active"},
      {"measurement": "IC50", "setting": "[2]; A549, 72 h", "value": 9.55, "unit": "µM"},
      {"measurement": "Activity", "setting": "[2]; dose <= 1.5 µM", "value": "Dose-Dependent Effect"},
      {"measurement": "IC50", "setting": "[3]", "value": 6.04, "unit": "µM"},
      {"measurement": "CI", "setting": "[4]", "value": 0.65},
      {"measurement": "inhibition", "setting": "[5]", "value": "Active"},
      {"measurement": "Activity", "setting": "[6]", "value": "Active"},
      {"measurement": "Activity", "setting": "[7]", "value": "Active"},
      {"measurement": "Activity", "setting": "[8]", "value": "Active"},
      {"measurement": "Activity", "setting": "[9]", "value": "inactive"},
      {"measurement": "Activity", "setting": "[10]", "value": "Active"},
      {"measurement": "Activity", "setting": "[11]", "value": "Active"},
      {"measurement": "Activity", "setting": "[12]", "value": "Dose-Dependent Effect"},
      {"measurement": "viability at 20 µM", "setting": "[13]", "value": 6.84, "unit": "%"},
      {"measurement": "Activity", "setting": "[14]", "value": 0.1, "unit": "%"},
      {"measurement": "Activity", "setting": "[15]", "value": 0.57, "unit": "%"},
      {"measurement": "Activity", "setting": "[16]", "value": 2.37, "unit": "%"},
      {"measurement": "Activity", "setting": "[17]", "value": 0.75, "unit": "%"},
      {"measurement": "Activity", "setting": "[18]", "value": "inactive"},
      {"measurement": "Activity", "setting": "[19]", "value": "> 90", "unit": "%"},
      {"measurement": "Activity", "setting": "[20]", "value": "inactive"},
      {"measurement": "Activity", "setting": "[21]", "value": "inactive"},
      {"measurement": "Activity", "setting": "[22]", "value": "Active"},
      {"measurement": "Activity", "setting": "[23]", "value": "Active"},
      {"measurement": "Activity", "setting": "[24]", "value": "inactive"},
      {"measurement": "inhibition", "setting": "[25]", "value": "Dose-Dependent Effect"},
      {"measurement": "inhibition", "setting": "[26]", "value": "Active"},
      {"measurement": "Activity", "setting": "[27]", "value": "Active"},
      {"measurement": "Activity", "setting": "[28]", "value": "Active"},
      {"measurement": "Activity", "setting": "[29]", "value": "Active"},
      {"measurement": "Activity", "setting": "[30]", "value": "Active"}
    ]}
  ]
}
